The values that follow come from PMC8016166, “Identification of a Potent and Selective 5-HT1A Receptor Agonist with In Vitro and In Vivo Antinociceptive Activity” (ACS Chemical Neuroscience, 2020).

The test system of one data set is Male Swiss CB1 mice. Kind of data set: Formalin test. It is filed as in vivo, mouse. The protocol:
Male Swiss CB1 mice (Envigo, S. Pietro al Natisone (UD)) weighing 25–30 g were used. The animals were kept at a constant room temperature (25 ± 1 °C) under a 12:12 h light and dark cycle, with free access to food and water. Each mouse was used for only one experiment. […] All the tests were performed blind to treatment.
The formalin (5%, 10 μL; Sigma-Aldrich) was injected subcutaneously into the plantar side of the right hind paw.[68] After injection, the mice were immediately placed in a plexiglas box: the total time (in seconds) spent on licking or biting the injected hind paw was recorded every 5 min at selected intervals, 0–10 (phase I) and 10–60 (phase II) min, in the different experimental groups, as an indicator of nociceptive behavior. […] A mean response was then calculated for each phase. […] A vehicle solution containing 10% DMSO was given as a control. Morphine was used as positive control. The test compound and vehicle were […] (i.p.) administered (5 mL/kg) 15 min before the formalin. […] The data are expressed as mean values (SEM). Analyses of variance (two-way repeated measures ANOVA followed by post hoc Bonferroni test) were performed to assess significance using the Instat 3.0 software (GraphPad Software, San Diego, CA). p < 0.05 was considered significant.

A further data set deals with T1, hERG (Homo sapiens, UniProt Q12809).
T1 construct: host or cells: CHO (hERG-CHO)
Kind of data set: CiPA hERG QPatch assay (hERG-CHO automated patch-clamp). It is filed as cell-based. The conditions noted are these: human, CHO cells expressing hERG (hERG-CHO), read-out: % inhibition of tail current in hERG-CHO. The source says:
(§1) After whole cell configuration is achieved, the cell is held at −80 mV. A 500 ms pulse to −40 mV is delivered to measure the leaking current, which is subtracted from the tail current online. Then, the cell is depolarized to +40 mV for 500 ms and then to −80 mV over a 100 ms ramp to elicit the hERG tail current. This paradigm is delivered once every 8 s to monitor the current amplitude.
(§2) The parameters measured were the maximum tail current evoked on stepping to 40 mV and ramping back to −80 mV from the test pulse. All data were filtered for seal quality, seal drop, and current amplitude. The peak current amplitude was calculated before and after compound addition, and the amount of block was assessed by dividing the Test compound current amplitude by the Control current amplitude. Control is the mean hERG current amplitude collected 15 s at the end of the control; Test Compound is the mean hERG current amplitude collected in the presence of test compound at each concentration.
(The hERG channel carries a current that helps repolarise heart muscle cells.)

Data set [1] addresses T2, human voltage gated potassium ion channel hERG (Homo sapiens, UniProt Q12809).
T2 construct: host or cells: CHO (hERG-CHO)
The data set is described as above. It counts as cell-based. The conditions noted are these: 0.1 and 1 μM, QPatch.
Text: as §1, §2

T1 sequence (Q12809 whole entry): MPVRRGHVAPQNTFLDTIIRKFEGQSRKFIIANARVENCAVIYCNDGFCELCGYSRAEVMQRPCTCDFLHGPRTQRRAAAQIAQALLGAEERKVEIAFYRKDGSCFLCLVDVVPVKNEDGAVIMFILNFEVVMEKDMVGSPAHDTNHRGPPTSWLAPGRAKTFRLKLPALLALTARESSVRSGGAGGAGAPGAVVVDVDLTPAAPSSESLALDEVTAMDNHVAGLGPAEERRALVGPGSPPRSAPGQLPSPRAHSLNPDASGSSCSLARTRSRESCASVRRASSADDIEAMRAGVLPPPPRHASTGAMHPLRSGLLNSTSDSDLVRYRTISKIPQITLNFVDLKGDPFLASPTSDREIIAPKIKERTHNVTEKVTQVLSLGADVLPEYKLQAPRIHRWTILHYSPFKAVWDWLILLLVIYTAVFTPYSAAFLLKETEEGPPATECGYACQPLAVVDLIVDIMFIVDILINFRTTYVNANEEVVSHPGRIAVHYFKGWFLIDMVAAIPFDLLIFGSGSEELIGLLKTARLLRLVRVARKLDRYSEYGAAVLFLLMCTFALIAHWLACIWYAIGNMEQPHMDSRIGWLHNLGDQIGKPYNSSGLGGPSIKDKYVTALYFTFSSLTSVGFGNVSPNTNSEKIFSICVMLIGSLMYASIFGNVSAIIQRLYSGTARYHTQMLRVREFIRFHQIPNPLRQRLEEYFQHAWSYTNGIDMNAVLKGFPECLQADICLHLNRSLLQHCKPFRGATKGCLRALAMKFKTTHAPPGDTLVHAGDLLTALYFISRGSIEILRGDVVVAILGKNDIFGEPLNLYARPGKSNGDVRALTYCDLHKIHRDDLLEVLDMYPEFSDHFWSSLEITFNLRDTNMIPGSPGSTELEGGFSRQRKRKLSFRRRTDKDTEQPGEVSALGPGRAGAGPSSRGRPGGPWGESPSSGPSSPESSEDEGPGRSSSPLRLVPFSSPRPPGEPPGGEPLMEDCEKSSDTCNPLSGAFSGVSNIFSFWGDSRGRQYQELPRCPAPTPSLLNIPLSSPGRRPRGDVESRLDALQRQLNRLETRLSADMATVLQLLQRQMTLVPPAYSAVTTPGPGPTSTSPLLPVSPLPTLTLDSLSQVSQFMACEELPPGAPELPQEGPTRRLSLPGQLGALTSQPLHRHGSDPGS
T2 sequence (Q12809 whole entry): as above

For `c1ccc(C2(c3ccccc3)OCC(CNCCOc3ccccc3-c3ccncc3)O2)cc1` (racemic) [rac-1, N-[(2,2-diphenyl-1,3-dioxolan-4-yl)methyl]-2-[2-(pyridin-4-yl)phenoxy]ethan-1-ammonium hydrogenoxalate], the “analgesic effect in first and second phases of the formalin test” value in the data set on Male Swiss CB1 mice (10 mg/kg i.p., formalin 5% 10 μL intraplantar) is given as “significant analgesic effects”. Also, the “analgesic effect after pretreatment with WAY-100635” value in the data set on Male Swiss CB1 mice (1 10 mg/kg i.p., WAY-100635 3 mg/kg i.p. 30 min before, second phase) is “prevented its analgesic effect”.
`c1ccc(C2(c3ccccc3)OC[C@H](CNCCOc3ccccc3-c3ccncc3)O2)cc1` [(S)-1, N-[(2,2-Diphenyl-1,3-dioxolan-4-yl)methyl]-2-[2-(pyridin-4-yl)phenoxy]ethan-1-ammonium hydrogenoxalate]: the inhibition at 0.1 µM at hERG (0.1 μM) is -3.35%. Further, the inhibition at 1 µM at hERG (1 μM) stood at 5.61%. In addition, the inhibition at 10 µM at hERG (10 μM) was found to be 66.7%. Also, the hERG inhibition entry in data set [1] is “does not inhibit hERG”.

The term inhibition denotes the relative decrease from the control value, in per cent.
